{"source": "patent US20210046042A1", "about": "“SUBSTANCES AND COMPOSITIONS FOR THE USE IN THE TREATMENT OF ENDOMETRIOSIS AND ENDOMETRIOSIS ASSOCIATED SYMPTOMS” (SISTEMI SALUTE S.R.L., priority 2017, published 2021)", "test_system": "patients affected by endometriosis, IV stage (deep endometriosis, adenomyosis and ovarian endometriosis)", "experiment": "Clinical study on patients affected by endometriosis treated with Luteolin", "assay_type": "in vivo, human", "experimental": "Clinical Study on Patients Affected by Endometriosis Treated with […]\nA composition in powder for oral administration containing Luteolin (62.5 mg of extract of shells of peanuts standardized to 80% Luteolin) equal to 50 mg was prepared.\n18 patients affected by endometriosis, IV stage, were identified, all of them with deep endometriosis, adenomyosis and ovarian endometriosis (endometriosis ovarian cysts larger than 3 cm), the disease diagnosis was placed with diagnostic protocol including vaginal and rectal explorations for the diagnosis of deep endometriosis, Nuclear magnetic resonance of pelvis with examination of resonance parameters for the diagnosis of adenomyosis, thickness of the neck-body junction area (JZ) of the uterus larger than 12 mm, exclusion criterion for adenomyosis thickness smaller than 8 mm, examination of the myometrium structure, examination of the myometrium thicknesses both of front and rear wall, hematic examinations comprising the marker Ca 125, the dosage of 17B-estradiol and of testosterone.\nThe first group constituted by 18 patients ingested 2 capsules per day, every twelve hours, for 45 days of the composition containing Luteolin 50 mg.\nFor the disease evaluation:\nThe dosage of 17B-estradiol\nThe dosage of testosterone\nThe Rectal examination for deep endometriosis\nThe rectal examination for deep endometriosis\nThe nuclear magnetic resonance of pelvis with contrast medium (gadolinium) were performed.\nINCLUSION CRITERIA for experimentation\nNot ingestion of pain-relieving drugs\nAbsence of anti-inflammatory drugs\nPositive Vaginal examination\nPositive rectal examination", "key": {"[1]": {"conditions": "21st day of treatment, basal JZ>12 mm"}, "[2]": {"conditions": "study group, 21st day of treatment, basal VAS>=7"}}, "note": "“Also recorded” adds a separate entry of the source."}
{"smiles": "O=c1cc(-c2ccc(O)c(O)c2)oc2cc(O)cc(O)c12", "note": "[Luteolin, 2-(3,4-dihydroxyphenyl)-,5,7dihydroxy-4-chromenone]", "values": [{"measurement": "Serum dosage of testosterone average value of the sample", "setting": "21st day of treatment, basal 0.13 ng/ml", "result": 0.15, "unit": "ng/mL"}, {"measurement": "RMN Adenomyosis JZ between 12 and 8 mm", "setting": "[1]", "result": 5, "unit": "%"}, {"measurement": "RMN Adenomyosis JZ<8 mm", "setting": "[1]", "result": 95, "unit": "%"}, {"measurement": "adenomyosis JZ", "setting": "Luteolin 50 mg oral twice a day, 18 patients", "result": "< 12", "unit": "mm"}, {"measurement": "disease parameters (deep endometriosis, adenomyosis, ovarian endometriosis)", "setting": "Luteolin 50 mg oral twice a day, 18 patients, IV stage", "result": "quick reduction; also recorded: quick decrease"}, {"measurement": "average maximum diameter of the ovarian cysts", "setting": "Luteolin 50 mg oral twice a day, 18 patients, from cm 5.34", "result": 2.14, "unit": "cm"}, {"measurement": "side effects / voluntary suspensions of the treatment", "setting": "Luteolin 50 mg oral twice a day, 45 days", "result": "No side effects"}, {"measurement": "antigen marker Ca 125 (in words)", "setting": "Luteolin 50 mg twice a day, all treated patients", "result": "reduced; also recorded: negativization"}, {"measurement": "RMN ovarian cysts weighted average (maximum diameter)", "setting": "after 21 days of therapy, basal cm 5.34", "result": 2.14}, {"measurement": "regression of the symptoms", "setting": "after five days from the beginning of administration, constant for 45 days", "result": "almost disappeared"}, {"measurement": "17 Beta-Estradiol dosage average value of the sample", "setting": "serum, 21st day of period, 21st day of treatment, basal 199 pg/ml", "result": 196, "unit": "pg/mL"}, {"measurement": "Ca 125 dosage: average value", "setting": "serum, 21st day of treatment, basal 72.6 UI/ml", "result": 32.1, "unit": "UI/ml"}, {"measurement": "Headache", "setting": "study group, 21st day of treatment, Luteolin 50 mg oral twice a day, basal 21%", "result": 11, "unit": "%"}, {"measurement": "Cystitis", "setting": "study group, 21st day of treatment, Luteolin 50 mg oral twice a day, basal 23%", "result": 5, "unit": "%"}, {"measurement": "Chronic pelvic pain VAS<3", "setting": "[2]", "result": 100}, {"measurement": "Dysmenorrhea VAS<3", "setting": "[2]", "result": 100}, {"measurement": "Dyspareunia VAS<=3", "setting": "[2]", "result": 100}]}
